Experimental data reported in BindingDB's records for doi:10.7270/Q25D8Q92 (Burnham Center For Chemical Genomics, 2011).

Each molecule was assayed against T1, Bcl-2-related protein A1 (Mus musculus, UniProt Q07440) (assay: Bfl-1 activity inhibition – biochemical, dose response (AID 504689)).
T1 sequence (Q07440 whole entry): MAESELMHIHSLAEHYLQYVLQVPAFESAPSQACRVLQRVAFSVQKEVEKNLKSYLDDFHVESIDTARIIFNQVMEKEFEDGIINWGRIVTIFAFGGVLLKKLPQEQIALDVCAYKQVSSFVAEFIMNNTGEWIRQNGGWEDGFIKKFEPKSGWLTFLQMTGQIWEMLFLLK

SMILES	IC50 [µM]
O=C1N=c2ccccc2=C1NNC(=S)NCC1CCCO1 (stereo not given)	> 20
N=C(N)C1=CC(=O)/C(=C/C=c2ccc(=C(N)N)cc2)C=C1 [(4E)-4-[2-[4-[bis(azanyl)methylidene]cyclohexa-2,5-dien-1-ylidene]ethylidene]-3-oxidanylidene-cyclohexa-1,5-diene-1-carboximidamide;2-oxidanylethanesulfonic acid]	> 20
CCN(CC)CCOC(=O)c1ccc(N=CC(C#N)c2nc(-c3ccc(OC)cc3)cs2)cc1 (stereo not given) [4-[[(Z)-2-cyano-2-[4-(4-methoxyphenyl)-2-thiazolyl]ethenyl]amino]benzoic acid 2-(diethylamino)ethyl ester]	2.99
C#CCOCCOCCOCCNc1nc(N2CCN(C(=O)CCCCCCCCCCNC(=O)[C@H]([C@@H](C)CC)n3cc(CCCCN=C(N)N)nn3)CC2)nc(N2CCN(C(=O)CCCCCCCCCCNC(=O)[C@H](CCCCN)n3cc(C)nn3)CC2)n1 [RI-GK]	8.52
CCOC(=O)C1C(COC(=O)c2ncc(Cl)c(Cl)c2Cl)=NC(=O)NC1C (stereo not given)	> 20
C#CCOCCOCCOCCNc1nc(N2CCN(C(=O)CCCCCCCCCCNC(=O)[C@H](CCCCN)n3cc(CCCC(=O)O)nn3)CC2)nc(N2CCN(C(=O)CCCCCCCCCCNC(=O)[C@H](CCCN=C(N)N)n3cc(C[C@@H](C)CC)nn3)CC2)n1 [EK-IR]	13.9
C#CCOCCOCCOCCNc1nc(N2CCN(C(=O)CCCCCCCCCCNC(=O)Cn3cc(CCCCCN)nn3)CC2)nc(N2CCN(C(=O)CCCCCCCCCCNC(=O)Cn3cc(C[C@@H](C)O)nn3)CC2)n1 [KG-TG]	> 20
Cc1cccc2c1C(=NNC(N)=S)C(=O)N2C1OC(CO)C(O)C(O)C1O (stereo not given) [The compound has not trivial name.]	> 20
Oc1c(Cc2cnc[nH]2)[nH]c(=S)n1-c1ccccc1 [MLS001163810]	> 20
C#CCOCCOCCOCCNc1nc(N2CCN(C(=O)CCCCCCCCCCNC(=O)[C@@H](CCC(=O)O)n3cc(CCCCCN)nn3)CC2)nc(N2CCN(C(=O)CCCCCCCCCCNC(=O)[C@H]([C@@H](C)CC)n3cc(CCCCCN)nn3)CC2)n1 [KI-KE]	> 20
CCCCNC(=S)N/N=C1\C(=O)Nc2ccccc21 [1-butyl-3-[(2-oxidanylideneindol-3-yl)amino]thiourea]	> 20
CCN(CC)CCOC(=O)c1ccc(N=CC(C#N)c2nc(-c3cc4ccccc4oc3=O)cs2)cc1 (stereo not given) [2-(diethylamino)ethyl 4-[[(Z)-2-cyano-2-[4-(2-oxochromen-3-yl)-1,3-thiazol-2-yl]ethenyl]amino]benzoate]	0.55
C#CCOCCOCCOCCNc1nc(N2CCN(C(=O)CCCCCCCCCCNC(=O)[C@H]([C@@H](C)CC)n3cc(CCCCN=C(N)N)nn3)CC2)nc(N2CCN(C(=O)CCCCCCCCCCNC(=O)[C@@H]([C@H](C)O)n3cc(C)nn3)CC2)n1 [GT-RI]	> 20
O=C1Nc2ccc([N+](=O)[O-])cc2C1=NNC(=S)NCC1CCCO1 (stereo not given)	> 20
COCCNC(=S)NN=C1C(=O)Nc2ccc([N+](=O)[O-])cc21 [1-(2-methoxyethyl)-3-[(5-nitro-2-oxoindol-3-yl)amino]thiourea]	> 20
CCNC(=S)NNC1=c2cc(C(C)C)ccc2=NC1=O [1-ethyl-3-[(2-oxo-5-propan-2-yl-3-indolyl)amino]thiourea]	> 20
Cc1cccc(NC(=S)NNC2=c3ccccc3=NC2=O)c1	> 20
CCN(CC)CCOC(=O)c1ccc(N=CC(C#N)c2nc(-c3ccc4c(c3)OCO4)cs2)cc1 (stereo not given) [2-(diethylamino)ethyl 4-[[(Z)-2-[4-(1,3-benzodioxol-5-yl)-1,3-thiazol-2-yl]-2-cyano-ethenyl]amino]benzoate]	1.72
Cc1cc(C)c2c(c1)=C(NNC(=S)NCC1CCCO1)C(=O)N=2 (stereo not given)	> 20
C#CCOCCOCCOCCNc1nc(N2CCN(C(=O)[C@H](Cc3cc4ccccc4[nH]3)n3cc([C@@H](N)CC(C)C)nn3)CC2)nc(N2CCN(C(=O)[C@H](Cc3cc4ccccc4[nH]3)n3cc([C@@H](N)CC(C)C)nn3)CC2)n1 [LW-LW]	19.7
COc1ccc2nc(C)cc(N=NCc3ccc(F)cc3)c2c1 [N-[(4-fluorophenyl)methylideneamino]-6-methoxy-2-methyl-4-quinolinamine]	17
NC(=S)NN=C1C(=O)N(CCCl)c2ccccc21	> 20
COC(=O)c1ccc(CN2C(=O)C(=NNC(N)=S)c3ccccc32)o1	> 20

The remaining lines, values ahead:

IC50 [µM]	SMILES
> 20	C#CCOCCOCCOCCNc1nc(N2CCN(C(=O)CCCCCCCCCCNC(=O)[C@H](CCCCN)n3cc(CCO)nn3)CC2)nc(N2CCN(C(=O)CCCCCCCCCCNC(=O)[C@H](CCCCN)n3cc(CCCC(=O)O)nn3)CC2)n1 [MLS002153608]
> 20	C#CCOCCOCCOCCNc1nc(N2CCN(C(=O)[C@H](Cc3cc4ccccc4[nH]3)n3cc([C@@H](N)C(C)CC)nn3)CC2)nc(N2CCN(C(=O)[C@H](CCCCN)n3cc([C@@H](N)CC(C)C)nn3)CC2)n1 (stereo not given in full) [MLS000562581]
> 20	COCCNC(=S)NNC1=c2cc(C)cc(C)c2=NC1=O [MLS000774564]
13.3	C#CCOCCOCCOCCNc1nc(N2CCN(C(=O)CCCCCCCCCCNC(=O)Cn3cc(CCCCCN)nn3)CC2)nc(N2CCN(C(=O)CCCCCCCCCCNC(=O)Cn3cc(CCCCCN)nn3)CC2)n1 [SMR001231146]
> 20	C#CCOCCOCCOCCNc1nc(N2CCN(C(=O)C([C@@H](C)CC)n3cc(C(N)COC(=O)C(F)(F)F)nn3)CC2)nc(N2CCN(C(=O)[C@H](CCCCN)n3cc(C(N)CC(C)C)nn3)CC2)n1 (stereo not given in full) [SMR000453712]
> 20	CCOC(=O)C1C(COC(=O)c2cc(OC)c(OC)c(OC)c2)=NC(=O)NC1C (stereo not given) [MLS001161811]
> 20	C#CCOCCOCCOCCNc1nc(N2CCN(C(=O)[C@H](CCCCN)n3cc([C@@H](N)CC(C)C)nn3)CC2)nc(N2CCN(C(=O)[C@H](Cc3cc4ccccc4[nH]3)n3cc([C@@H](N)Cc4ccc(O)cc4)nn3)CC2)n1 [SMR000391143]
> 20	C#CCOCCOCCOCCNc1nc(N2CCN(C(=O)CCCCCCCCCCNC(=O)Cn3cc(CCCCCN)nn3)CC2)nc(N2CCN(C(=O)CCCCCCCCCCNC(=O)[C@H]([C@@H](C)CC)n3cc(CCCCCN)nn3)CC2)n1 [MLS002153714]
> 20	C#CCOCCOCCOCCNc1nc(N2CCN(C(=O)[C@H](CCCN=C(N)N)n3cc(C(N)[C@H](C)CC)nn3)CC2)nc(N2CCN(C(=O)[C@H](CCCN=C(N)N)n3cc(C(N)[C@@H](C)CC)nn3)CC2)n1 (stereo not given in full) [MLS002473475]
> 20	CCOc1ccc(-c2csc(NC(=O)c3cccc(-n4c(O)ccc4O)c3)n2)cc1 [SMR000319795]
> 20	C#CCOCCOCCOCCNc1nc(N2CCN(C(=O)CCCCCCCCCCNC(=O)[C@H](CCCCN)n3cc(CCO)nn3)CC2)nc(N2CCN(C(=O)CCCCCCCCCCNC(=O)[C@H](CCCCN)n3cc(CCO)nn3)CC2)n1 [MLS002153615]
> 20	COc1cc(C2c3c(-c4cccs4)n[nH]c3OC(=N)C2C#N)cc(OC)c1O (stereo not given) [SMR000275523]
11.7	C#CCOCCOCCOCCNc1nc(N2CCN(C(=O)[C@H](Cc3cc4ccccc4[nH]3)n3cc([C@@H](N)C(C)CC)nn3)CC2)nc(N2CCN(C(=O)[C@H](Cc3cc4ccccc4[nH]3)n3cc([C@@H](N)Cc4ccc(O)cc4)nn3)CC2)n1 (stereo not given in full) [SMR000391146]
> 20	CCOC(=O)c1c(C)c2c(n1C)CCCC2N=O (stereo not given) [MLS000026784]
3.44	CCN(CC)CCOC(=O)c1ccc(N=CC(C#N)c2nc(-c3ccc(OC)c(OC)c3)cs2)cc1 (stereo not given) [SMR000434079]
> 20	C#CCOCCOCCOCCNc1nc(N2CCN(C(=O)CCCCCCCCCCNC(=O)[C@@H](CCSC)n3cc(CCO)nn3)CC2)nc(N2CCN(C(=O)CCCCCCCCCCNC(=O)[C@H](CO)n3cc(CCCCCN)nn3)CC2)n1 [MLS002153734]
8.02	C#CCOCCOCCOCCNc1nc(N2CCN(C(=O)CCCCCCCCCCNC(=O)[C@H](CCCCN)n3cc(C)nn3)CC2)nc(N2CCN(C(=O)CCCCCCCCCCNC(=O)[C@@H]([C@H](C)CC)n3cc(CCCCCN)nn3)CC2)n1 [MLS002153655]
11.8	C#CCOCCOCCOCCNc1nc(N2CCN(C(=O)CCCCCCCCCCNC(=O)Cn3cc(CCCCCN)nn3)CC2)nc(N2CCN(C(=O)CCCCCCCCCCNC(=O)[C@H](CO)n3cc(CCCSC)nn3)CC2)n1 [MLS002153667]
> 20	C#CCOCCOCCOCCNc1nc(N2CCN(C(=O)[C@H](CCCCN)n3cc([C@@H](N)C(C)CC)nn3)CC2)nc(N2CCN(C(=O)[C@H](Cc3cc4ccccc4[nH]3)n3cc([C@@H](N)CC(C)C)nn3)CC2)n1 (stereo not given in full) [SMR000391070]
> 20	C#CCOCCOCCOCCNc1nc(N2CCN(C(=O)[C@H](CCCCN)n3cc([C@@H](N)C(C)CC)nn3)CC2)nc(N2CCN(C(=O)[C@H](Cc3cc4ccccc4[nH]3)n3cc([C@@H](N)C(C)CC)nn3)CC2)n1 (stereo not given in full) [MLS000562580]
6.58	C#CCOCCOCCOCCNc1nc(N2CCN(C(=O)CCCCCCCCCCNC(=O)[C@H](CCCCN)n3cc(C)nn3)CC2)nc(N2CCN(C(=O)CCCCCCCCCCNC(=O)[C@H](CCCN=C(N)N)n3cc(C[C@@H](C)CC)nn3)CC2)n1 [MLS002153614]
14.2	C#CCOCCOCCOCCNc1nc(N2CCN(C(=O)CCCCCCCCCCNC(=O)[C@H](CO)n3cc(CCCSC)nn3)CC2)nc(N2CCN(C(=O)CCCCCCCCCCNC(=O)[C@H](CCCCN)n3cc(CCO)nn3)CC2)n1 [SMR001318322]
10.1	C#CCOCCOCCOCCNc1nc(N2CCN(C(=O)CCCCCCCCCCNC(=O)Cn3cc(C[C@@H](C)O)nn3)CC2)nc(N2CCN(C(=O)CCCCCCCCCCNC(=O)[C@H](CCCN=C(N)N)n3cc(C[C@@H](C)CC)nn3)CC2)n1 [MLS002153601]
> 20	CC1=CC(C)(C)N2C(=O)/C(=N\NC(N)=S)c3cccc1c32 [SMR000218901]
6.1	C#CCOCCOCCOCCNc1nc(N2CCN(C(=O)CCCCCCCCCCNC(=O)[C@H]([C@@H](C)CC)n3cc(CCCCCN)nn3)CC2)nc(N2CCN(C(=O)CCCCCCCCCCNC(=O)[C@H]([C@@H](C)CC)n3cc(CCCCN=C(N)N)nn3)CC2)n1 [MLS002153718]
> 20	CC(C)NC(=S)NNC1=c2cc(C(C)C)ccc2=NC1=O [SMR000242097]
> 20	CC1CC(C)(C)N2C(=O)/C(=N\NC(N)=S)c3cccc1c32 (stereo not given) [SMR000414933]
